Where a SMILES comes first, the peptide text is derived from it.
Tests used:
[1] = test system: CIB2; assay: Near-UV circular dichroism; type: physicochemical, human; conditions: 37 °C
Experimental: CIB2 tertiary structure was investigated by using a Jasco J-710 spectropolarimeter equipped with a Peltier type cell holder as previously described. Briefly: near-UV (250–320 nm) CD spectra of 20 μM of sole CIB2 or CIB2/α7B_M complexes (1:1 and 1:2 ratios) were collected in the presence of 500 μM EGTA and after sequential additions of 1 mM Mg^2+ and 2 mM free Ca^2+. A 1 cm quartz cuvette was used, temperature was set at 37 °C, integration time and data pitch were set to 4 s and 1 nm, respectively. Each spectrum represents the average of 5 accumulations. […]
Figure S4: Structural comparison of His-CIB2 (A) and CIB2 (B). Near-UV CD spectra (250-320 nm) of 20-30 µM CIB2 were collected at 37°C in a quartz cuvette with 1 cm length path. Sequential additions of 500 µM EGTA (black), 1 mM Mg2+ (blue) and 2 mM Ca2+ (red) were performed. Near-UV CD spectra of the buffer (20 mM HEPES pH 7.5, 150 mM KCl, 1 mM DTT) was considered as blank and subtracted. Each spectrum represents the mean of 5 accumulations. Data were normalized according to the protein concentration and the number of residues (Molar Residue Ellipticity, MRE).
Figure S5: Near-UV CD spectra of CIB2 in the presence of different stoichiometric ratios of alpha7B_M peptide. Near-UV CD spectra (250-320nm) of 20 μM CIB2 in the absence of peptide (black lines) and in the presence of two different protein/peptide ratios (1:1 blue lines; 1:2 red lines) collected at 37°C in the presence of 500 μM EGTA (A) and after sequential additions of 1 mM Mg2+ (B) and 2 mM free Ca2+ (C). The spectrum of alpha7B_M peptide in the absence of CIB2 is shown in dashed grey lines. […]

[2] = reducing conditions, different cation-bound states; cited from earlier work
Excerpt: Moreover, DLS experiments performed with the samples collected immediately after elution from the SEC column measured a relatively high hydrodynamic diameter (d^Mg = 8.43 nm and d^Ca = 8.18 nm), which was also interpreted as an evidence of a dimeric protein[8]. […] According to a calibration curve obtained with globular proteins of known MW, these bands would correspond to an apparent MW (MW^SEC) of 35.9 kDa in the absence and of 36.7 kDa in the presence of the cross-linker, thus very similar to those obtained in our previo ...

| Molecule | near-UV CD, effect of peptide on apo-CIB2 ([1]; 20 μM CIB2, 500 μM EGTA, 1:1 and 2:1 peptide:protein) | near-UV CD, effect of peptide on cation-bound CIB2 ([1]; 20 μM CIB2, 1 mM Mg^2+ and co-presence of 2 mM Ca^2+, 1:1 and 2:1 peptide:protein) | near-UV CD, structure of isolated peptide ([1]; 500 μM EGTA, 1 mM Mg^2+, 2 mM Ca^2+) | near-UV CD, tryptophan region ([1]; incubation of CIB2 with peptide) | apparent MW (MW^SEC), previous work [2] |
| --- | --- | --- | --- | --- | --- |
| CSCC[C@H](NC(=O)[C@H](CCCCN)NC(=O)[C@H](Cc1c[nH]c2ccccc12)NC(=O)[C@H](CC(C)C)NC(=O)[C@H](CC(C)C)NC(=O)[C@H](CC(C)C)NC(C)=O)C(=O)NCC(=O)N[C@@H](Cc1ccccc1)C(=O)N[C@@H](Cc1ccccc1)C(=O)N[C@@H](CCCCN)C(=O)N[C@@H](CCCNC(=N)N)C(=O)N[C@@H](C)C(=O)N[C@@H](CCCCN)C(=O)N[C@@H](Cc1c[nH]cn1)C(=O)N1CCC[C@H]1C(=O)N[C@@H](CCC(=O)O)C(N)=O [α7B_M] (Ac-LLLWKMGFFKRAKHPE-NH2) | finer spectrum in the phenylalanine and tyrosine bands | the intensity of the resulting spectrum was lower compared to that of CIB2 without the peptide | unfolded in all the tested cases | no clear signal was visible | – |
| CIB2: Recombinant human CIB2, Ca^2+ and Mg^2+-binding protein (protein, left off: His tag, end not stated, cleaved) MGNKQTIFTEEQLDNYQDCTFFNKKDILKLHSRFYELAPNLVPMDYRKSPIVHVPMSLIIQMPELRENPFKERIVAAFSEDGEGNLTFNDFVDMFSVLCESAPRELKANYAFKIYDFNTDNFICKEDLELTLARLTKSELDEEEVVLVCDKVIEEADLDGDGKLGFADFEDMIAKAPDFLSTFHIRI | – | – | – | – | 37–39 kDa |

Source: article PMC6803640, “Oligomeric state, hydrodynamic properties and target recognition of human Calcium and Integrin Binding protein 2 (CIB2)” (Scientific Reports, 2019)
